# Toxic doses and inconclusive results are not listed.
# System: L1210 leukemia ip in BDF1 mice, survival T/C
# Test: NCI In Vivo Anticancer Drug Screen. Data for tumor model L1210 Leukemia (intraperitoneal) in B6D2F1 (BDF1) mice
# Conditions: endpoint: mean survival time, higher = longer survival
# Summary of the method: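 Each compound was tested against a transplantable tumor grown in mice. The endpoint was survival, with treated animals benchmarked against vehicle controls as a simple ratio.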
# [1] = dose: 75.0 mg/kg/injection, schedule: Q01DX001 (ip), vehicle: saline
# [2] = dose: 150.0 mg/kg/injection, schedule: Q01DX001 (ip), vehicle: saline
# [3] = dose: 100.0 mg/kg/injection, schedule: Q01DX009 (ip), vehicle: Klucel (hydroxypropylcellulose) (HPC)
# [4] = dose: 100.0 mg/kg/injection, schedule: Q04DX003 (ip), vehicle: Klucel (hydroxypropylcellulose) (HPC)
# [5] = dose: 200.0 mg/kg/injection, schedule: Q01DX009 (ip), vehicle: Klucel (hydroxypropylcellulose) (HPC)
# [6] = dose: 400.0 mg/kg/injection, schedule: Q01DX009 (ip), vehicle: Klucel (hydroxypropylcellulose) (HPC)
# [7] = dose: 400.0 mg/kg/injection, schedule: Q04DX003 (ip), vehicle: Klucel (hydroxypropylcellulose) (HPC)
# [8] = dose: 100.0 mg/kg/injection, schedule: Q04DX003 (ip), vehicle: saline with Tween-80
# [9] = dose: 200.0 mg/kg/injection, schedule: Q04DX003 (ip), vehicle: saline with Tween-80
# [10] = dose: 100.0 mg/kg/injection, schedule: Q01DX001 (ip), vehicle: saline
# [11] = dose: 100.0 mg/kg/injection, schedule: Q01DX001 (ip), vehicle: saline with Tween-80
# [12] = dose: 50.0 mg/kg/injection, schedule: Q01DX001 (ip), vehicle: saline
# [13] = dose: 200.0 mg/kg/injection, schedule: Q01DX001 (ip), vehicle: saline
# [14] = dose: 400.0 mg/kg/injection, schedule: Q01DX001 (ip), vehicle: saline
# [15] = dose: 100.0 mg/kg/injection, schedule: Q01DX009 (ip), vehicle: saline with Tween-80
# [16] = dose: 200.0 mg/kg/injection, schedule: Q01DX009 (ip), vehicle: saline with Tween-80
# [17] = dose: 3.12 mg/kg/injection, schedule: Q01DX009 (ip), vehicle: saline
# [18] = dose: 6.25 mg/kg/injection, schedule: Q01DX009 (ip), vehicle: saline
# [19] = dose: 100.0 mg/kg/injection, schedule: Q04DX002 (ip), vehicle: Klucel (hydroxypropylcellulose) (HPC)
# [20] = dose: 200.0 mg/kg/injection, schedule: Q04DX002 (ip), vehicle: Klucel (hydroxypropylcellulose) (HPC)
# [21] = dose: 400.0 mg/kg/injection, schedule: Q04DX002 (ip), vehicle: Klucel (hydroxypropylcellulose) (HPC)
# [22] = dose: 100.0 mg/kg/injection, schedule: Q01DX001 (ip), vehicle: carboxymethylcellulose (CMC)
# [23] = dose: 200.0 mg/kg/injection, schedule: Q01DX001 (ip), vehicle: carboxymethylcellulose (CMC)
# [24] = dose: 400.0 mg/kg/injection, schedule: Q01DX001 (ip), vehicle: carboxymethylcellulose (CMC)
structure (smiles),measurement,setting,value
COC(=O)C(=O)c1c(-c2ccc[n+](Cc3ccccc3)c2)[nH]c2ccccc12,T/C,[1],101 % of control
same,T/C,[2],93 % of control
Nc1nc2ncc(CNc3ccc(CC(=O)NC(CCC(=O)O)C(=O)O)cc3)nc2c(=O)[nH]1 (centres undefined),T/C,[1],103 % of control
same,T/C,[2],103 % of control
CCOc1ccc(NC(=O)Nc2cccc3ccccc23)cc1,T/C,[3],98 % of control
same,T/C,[4],86 % of control
same,T/C,[5],94 % of control
same,T/C,[6],86 % of control
same,T/C,[7],92 % of control
Nc1ccc(S(=O)(=O)CC(=O)N2CCOCC2)cc1,T/C,[8],100 % of control
same,T/C,[9],97 % of control
same,T/C,"dose: 400.0 mg/kg/injection, schedule: Q04DX003 (ip), vehicle: saline with Tween-80",97 % of control
CC(=O)CSc1nc2ccccc2s1,T/C,"dose: 50.0 mg/kg/injection, schedule: Q01DX009 (ip), vehicle: Klucel (hydroxypropylcellulose) (HPC)",95 % of control
same,T/C,[3],104 % of control
same,T/C,[5],111 % of control
Cc1nnc(Cl)c2ccccc12,T/C,[10],95 % of control
CCNS(=O)(=O)c1ccc(C(N)=S)cc1,T/C,[11],100 % of control
same,T/C,"dose: 200.0 mg/kg/injection, schedule: Q01DX001 (ip), vehicle: saline with Tween-80",97 % of control
same,T/C,"dose: 400.0 mg/kg/injection, schedule: Q01DX001 (ip), vehicle: saline with Tween-80",98 % of control
CC(=O)OC1CCC2(C)C(CCC3C2CCC2(C)C(C(C)O)CCCC32)C1 (centres undefined),T/C,"dose: 100.0 mg/kg/injection, schedule: Q01DX001 (ip), vehicle: Klucel (hydroxypropylcellulose) (HPC)",88 % of control
same,T/C,"dose: 200.0 mg/kg/injection, schedule: Q01DX001 (ip), vehicle: Klucel (hydroxypropylcellulose) (HPC)",98 % of control
Cc1[nH]c2ccccc2c1C(=O)Cc1ccc(Cl)c(Cl)c1,T/C,[12],101 % of control
same,T/C,[10],98 % of control
same,T/C,[13],98 % of control
same,T/C,[14],101 % of control
O=C(O)c1cccc2[nH]c(=O)oc(=O)c12,T/C,[15],103 % of control
same,T/C,[16],106 % of control
COC(=O)C(CC/C(=N\Nc1ccc([N+](=O)[O-])cc1[N+](=O)[O-])c1ccccc1)C(=O)OC,T/C,"dose: 25.0 mg/kg/injection, schedule: Q01DX001 (ip), vehicle: saline with Tween-80",95 % of control
same,T/C,"dose: 50.0 mg/kg/injection, schedule: Q01DX001 (ip), vehicle: saline with Tween-80",88 % of control
same,T/C,[11],91 % of control
C1CN(CC2CO2)CCO1 (centres undefined),T/C,"dose: 100.0 mg/kg/injection, schedule: Q01DX009 (ip), vehicle: saline",105 % of control
same,T/C,"dose: 200.0 mg/kg/injection, schedule: Q01DX009 (ip), vehicle: saline",117 % of control
same,T/C,"dose: 400.0 mg/kg/injection, schedule: Q01DX009 (ip), vehicle: saline",105 % of control
c1ccc(-c2cc(-c3ccccc3)cc(-c3ccccc3)c2)cc1,T/C,"dose: 1.56 mg/kg/injection, schedule: Q01DX009 (ip), vehicle: saline",98 % of control
same,T/C,[17],95 % of control
same,T/C,[18],93 % of control
CC(C)(O)OC1COC(C2CS2)C1O (centres undefined),T/C,[19],94 % of control
same,T/C,[20],98 % of control
same,T/C,[21],102 % of control
N#Cc1oc2ccccc2c1OC(=O)C(F)(F)F,T/C,[8],100 % of control
same,T/C,[9],95 % of control
CCOc1ccc(/C=N/NC(=O)Cc2cccc3ccccc23)cc1OC,T/C,[3],95 % of control
same,T/C,[5],98 % of control
same,T/C,[6],97 % of control
CCCCN(CCCC)CC(O)c1cc2ccc(Cl)cc2nc1-c1ccc(Cl)cc1 (centres undefined),T/C,[4],100 % of control
same,T/C,"dose: 200.0 mg/kg/injection, schedule: Q04DX003 (ip), vehicle: Klucel (hydroxypropylcellulose) (HPC)",96 % of control
same,T/C,[7],102 % of control
O=C1C(c2[nH]c3cc4c(cc3c2O)OCO4)=Nc2cc3c(cc21)OCO3,T/C,[12],100 % of control
same,T/C,[10],103 % of control
same,T/C,[13],97 % of control
same,T/C,[14],94 % of control
CC[n+]1ccc(Nc2ccc(NC(=O)c3ccc(C(=O)Nc4ccc(Nc5cc[n+](CC)c(N)n5)cc4)cc3)cc2)nc1N,T/C,[10],190 % of control
same,T/C,"dose: 133.0 mg/kg/injection, schedule: Q01DX009 (ip), vehicle: saline",88 % of control
same,T/C,[2],228 % of control
same,T/C,"dose: 225.0 mg/kg/injection, schedule: Q01DX001 (ip), vehicle: saline",203 % of control
CSc1ccnc2c1ncn2C1OC(CO)C(O)C1O (centres undefined),T/C,[22],98 % of control
same,T/C,[23],104 % of control
same,T/C,[24],96 % of control
CN(C)c1ccc(C(=C2C=CC(=[N+](C)C)C=C2)c2ccccc2Cl)cc1,T/C,[12],92 % of control
same,T/C,[10],92 % of control
O=[N+]([O-])c1ccccc1S/N=C/c1ccccc1O,T/C,[19],94 % of control
same,T/C,[20],94 % of control
same,T/C,[21],105 % of control
O=S(O)c1ccc2cc(O)c(S(=O)O)cc2c1,T/C,[10],95 % of control
same,T/C,[15],95 % of control
same,T/C,[13],97 % of control
same,T/C,[16],95 % of control
same,T/C,[14],97 % of control
same,T/C,"dose: 400.0 mg/kg/injection, schedule: Q01DX009 (ip), vehicle: saline with Tween-80",92 % of control
O=C(O)C1OC(n2cc(I)c(=O)[nH]c2=O)CC1O (centres undefined),T/C,[10],107 % of control
same,T/C,[13],103 % of control
same,T/C,[14],100 % of control
Nc1ccc(C(=O)/C=C/c2ccccn2)cc1,T/C,"dose: 50.0 mg/kg/injection, schedule: Q01DX001 (ip), vehicle: carboxymethylcellulose (CMC)",97 % of control
same,T/C,[22],103 % of control
same,T/C,[23],105 % of control
same,T/C,[24],103 % of control
CN(C)CCOc1ccc(Cl)cc1Cc1ccccc1,T/C,[17],95 % of control
same,T/C,[18],95 % of control
same,T/C,"dose: 12.5 mg/kg/injection, schedule: Q01DX009 (ip), vehicle: saline",118 % of control
same,T/C,"dose: 25.0 mg/kg/injection, schedule: Q01DX009 (ip), vehicle: saline",105 % of control
same,T/C,"dose: 25.0 mg/kg/injection, schedule: Q04DX003 (ip), vehicle: saline",100 % of control
same,T/C,"dose: 50.0 mg/kg/injection, schedule: Q01DX009 (ip), vehicle: saline",112 % of control
same,T/C,"dose: 50.0 mg/kg/injection, schedule: Q04DX003 (ip), vehicle: saline",94 % of control
CC(C)=CCC(=O)Oc1ccccc1C(=O)O,T/C,[8],92 % of control
same,T/C,[9],102 % of control
O=C(Nc1ccccc1)Nc1cccc([N+](=O)[O-])c1,T/C,"dose: 100.0 mg/kg/injection, schedule: Q04DX002 (ip), vehicle: saline",100 % of control
same,T/C,"dose: 200.0 mg/kg/injection, schedule: Q04DX002 (ip), vehicle: saline",92 % of control
same,T/C,"dose: 400.0 mg/kg/injection, schedule: Q04DX002 (ip), vehicle: saline",103 % of control
C/C(=N\Sc1cccc([N+](=O)[O-])c1)c1ccccc1O,T/C,[19],105 % of control
same,T/C,[20],94 % of control
same,T/C,[21],94 % of control
S=C(N/N=C/C=C/c1ccccc1)NC1CC2CC1C1C=CCC21 (centres undefined),T/C,[3],94 % of control
same,T/C,[5],117 % of control
same,T/C,[6],88 % of control
O=C(CCCc1ccc(N(CCCl)CCCl)cc1)Nc1ncccn1,T/C,"dose: 1.0 mg/kg/injection, schedule: Q01DX015 (ip), vehicle: carboxymethylcellulose (CMC)",113 % of control
same,T/C,"dose: 3.0 mg/kg/injection, schedule: Q01DX015 (ip), vehicle: carboxymethylcellulose (CMC)",118 % of control
same,T/C,"dose: 6.0 mg/kg/injection, schedule: Q01DX015 (ip), vehicle: carboxymethylcellulose (CMC)",118 % of control
same,T/C,"dose: 6.25 mg/kg/injection, schedule: Q01DX001 (ip), vehicle: saline",110 % of control
same,T/C,"dose: 12.0 mg/kg/injection, schedule: Q01DX015 (ip), vehicle: carboxymethylcellulose (CMC)",123 % of control
same,T/C,"dose: 12.5 mg/kg/injection, schedule: Q01DX001 (ip), vehicle: saline",110 % of control
same,T/C,"dose: 25.0 mg/kg/injection, schedule: Q01DX001 (ip), vehicle: saline",121 % of control
O=C1CCCC2C1CCCC21OCCO1 (centres undefined),T/C,[10],96 % of control
same,T/C,[13],96 % of control
same,T/C,[14],96 % of control

# Source: PubChem BioAssay AID248 (DTP/NCI, 2004)
